Test results taken from PMC9954146, “Anti-Leukaemic Activity of Rilpivirine Is Mediated by Aurora A Kinase Inhibition” (Cancers, 2023).

Key:
Test in all cases: Kinase panel
Type in all cases: biochemical
Conditions in all cases: read-out: % Residual Activity
ALK1(h) = molecular target: T1, ALK1(h) (Homo sapiens, UniProt P37023)
T1 construct: purchased Eurofins (KinaseProfiler)
Outline: (§1)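 Radiometric kinase assay, ATP at Km for each enzyme; IC50 → Ki via Cheng–Prusoff. Part of a kinome-wide selectivity screen of rilpivirine.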

B-Raf(V599E)(h) = molecular target: T2, B-Raf(V599E)(h) (Homo sapiens, UniProt P15056, V600E)
T2 construct: purchased Eurofins (KinaseProfiler)
Outline: as §1

CDKL2(h) = molecular target: T3, CDKL2(h) (Homo sapiens, UniProt Q92772)
T3 construct: purchased Eurofins (KinaseProfiler)
Outline: as §1

CHK2(R145W)(h) = molecular target: T4, CHK2(R145W)(h) (Homo sapiens, UniProt O96017, R145W)
T4 construct: purchased Eurofins (KinaseProfiler)
Outline: as §1

CK1γ1(h) = molecular target: T5, CK1γ1(h) (Homo sapiens, UniProt Q9HCP0)
T5 construct: purchased Eurofins (KinaseProfiler)
Outline: as §1

CK1δ(h) = molecular target: T6, CK1δ(h) (Homo sapiens, UniProt P48730)
T6 construct: purchased Eurofins (KinaseProfiler)
Outline: as §1

CLK4(h) = molecular target: T7, CLK4(h) (Homo sapiens, UniProt Q9HAZ1)
T7 construct: purchased Eurofins (KinaseProfiler)
Outline: as §1

DYRK1B(h) = molecular target: T8, DYRK1B(h) (Homo sapiens, UniProt Q9Y463)
T8 construct: purchased Eurofins (KinaseProfiler)
Outline: as §1

EphA3(h) = molecular target: T9, EphA3(h) (Homo sapiens, UniProt P29320)
T9 construct: purchased Eurofins (KinaseProfiler)
Outline: as §1

FGFR4(h) = molecular target: T10, FGFR4(h) (Homo sapiens, UniProt P22455)
T10 construct: purchased Eurofins (KinaseProfiler)
Outline: as §1

GRK3(h) = molecular target: T11, GRK3(h) (Homo sapiens, UniProt P35626)
T11 construct: purchased Eurofins (KinaseProfiler)
Outline: as §1

HIPK3(h) = molecular target: T12, HIPK3(h) (Homo sapiens, UniProt Q9H422)
T12 construct: purchased Eurofins (KinaseProfiler)
Outline: as §1

LIMK2(h) = molecular target: T13, LIMK2(h) (Homo sapiens, UniProt P53671)
T13 construct: purchased Eurofins (KinaseProfiler)
Outline: as §1

LRRK2(h) = molecular target: T14, LRRK2(h) (Homo sapiens, UniProt Q5S007)
T14 construct: purchased Eurofins (KinaseProfiler)
Outline: as §1

MuSK(h) = molecular target: T15, MuSK(h) (Homo sapiens, UniProt O15146)
T15 construct: purchased Eurofins (KinaseProfiler)
Outline: as §1

NEK7(h) = molecular target: T16, NEK7(h) (Homo sapiens, UniProt Q8TDX7)
T16 construct: purchased Eurofins (KinaseProfiler)
Outline: as §1

PAK4(h) = molecular target: T17, PAK4(h) (Homo sapiens, UniProt O96013)
T17 construct: purchased Eurofins (KinaseProfiler)
Outline: as §1

PEK(h) = molecular target: T18, PEK(h) (Homo sapiens, UniProt Q9NZJ5)
T18 construct: purchased Eurofins (KinaseProfiler)
Outline: as §1

[1] = molecular target: PI3 Kinase (p110a(E542K)/p85a)(h) (Homo sapiens, UniProt P42336, E542K)
Outline: as §1

[2] = molecular target: PI3 Kinase (p110d/p85a)(m) (Mus musculus, UniProt O35904)
Outline: as §1

PIP5K1a(h) = PIP5K1a(h) (Homo sapiens, UniProt Q99755)
Outline: as §1

PKCδ(h) = molecular target: T19, PKCδ(h) (Homo sapiens, UniProt Q05655)
T19 construct: purchased Eurofins (KinaseProfiler)
Outline: as §1

PRP4(h) = molecular target: T20, PRP4(h) (Homo sapiens, UniProt Q13523)
T20 construct: purchased Eurofins (KinaseProfiler)
Outline: as §1

PhKγ1(h) = molecular target: T21, PhKγ1(h) (Homo sapiens, UniProt Q16816)
T21 construct: purchased Eurofins (KinaseProfiler)
Outline: as §1

Plk4(h) = molecular target: T22, Plk4(h) (Homo sapiens, UniProt O00444)
T22 construct: purchased Eurofins (KinaseProfiler)
Outline: as §1

Ret (V804L)(h) = molecular target: T23, Ret (V804L)(h) (Homo sapiens, UniProt P07949, V804L)
T23 construct: purchased Eurofins (KinaseProfiler)
Outline: as §1

SIK2(h) = molecular target: T24, SIK2(h) (Homo sapiens, UniProt Q9H0K1)
T24 construct: purchased Eurofins (KinaseProfiler)
Outline: as §1

SRMS(h) = molecular target: T25, SRMS(h) (Homo sapiens, UniProt Q9H3Y6)
T25 construct: purchased Eurofins (KinaseProfiler)
Outline: as §1

STK33(h) = molecular target: T26, STK33(h) (Homo sapiens, UniProt Q9BYT3)
T26 construct: purchased Eurofins (KinaseProfiler)
Outline: as §1

TAO1(h) = molecular target: T27, TAO1(h) (Homo sapiens, UniProt Q7L7X3)
T27 construct: purchased Eurofins (KinaseProfiler)
Outline: as §1

TGFBR1(h) = molecular target: T28, TGFBR1(h) (Homo sapiens, UniProt P36897)
T28 construct: purchased Eurofins (KinaseProfiler)
Outline: as §1

TSSK2(h) = molecular target: T29, TSSK2(h) (Homo sapiens, UniProt Q96PF2)
T29 construct: purchased Eurofins (KinaseProfiler)
Outline: as §1

TSSK4(h) = molecular target: T30, TSSK4(h) (Homo sapiens, UniProt Q6SA08)
T30 construct: purchased Eurofins (KinaseProfiler)
Outline: as §1

TTBK1(h) = molecular target: T31, TTBK1(h) (Homo sapiens, UniProt Q5TCY1)
T31 construct: purchased Eurofins (KinaseProfiler)
Outline: as §1

TTBK2(h) = molecular target: T32, TTBK2(h) (Homo sapiens, UniProt Q6IQ55)
T32 construct: purchased Eurofins (KinaseProfiler)
Outline: as §1

TYK2(h) = molecular target: T33, TYK2(h) (Homo sapiens, UniProt P29597)
T33 construct: purchased Eurofins (KinaseProfiler)
Outline: as §1

TrkB(h) = molecular target: T34, TrkB(h) (Homo sapiens, UniProt Q16620)
T34 construct: purchased Eurofins (KinaseProfiler)
Outline: as §1

WNK1(h) = molecular target: T35, WNK1(h) (Homo sapiens, UniProt Q9H4A3)
T35 construct: purchased Eurofins (KinaseProfiler)
Outline: as §1

T28 sequence (P36897 34-503): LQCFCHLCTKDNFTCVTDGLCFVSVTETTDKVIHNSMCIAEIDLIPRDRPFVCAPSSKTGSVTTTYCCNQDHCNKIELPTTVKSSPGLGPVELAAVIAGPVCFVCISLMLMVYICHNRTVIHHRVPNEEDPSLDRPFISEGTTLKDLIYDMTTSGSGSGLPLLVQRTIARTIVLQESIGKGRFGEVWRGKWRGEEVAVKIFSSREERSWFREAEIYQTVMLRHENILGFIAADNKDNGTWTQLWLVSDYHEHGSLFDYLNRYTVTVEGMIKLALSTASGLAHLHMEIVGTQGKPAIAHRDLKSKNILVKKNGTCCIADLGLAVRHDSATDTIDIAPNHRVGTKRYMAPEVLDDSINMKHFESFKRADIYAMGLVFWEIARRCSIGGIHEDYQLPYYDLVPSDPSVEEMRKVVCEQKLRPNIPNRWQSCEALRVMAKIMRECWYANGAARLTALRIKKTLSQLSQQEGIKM
T32 sequence (Q6IQ55 whole entry): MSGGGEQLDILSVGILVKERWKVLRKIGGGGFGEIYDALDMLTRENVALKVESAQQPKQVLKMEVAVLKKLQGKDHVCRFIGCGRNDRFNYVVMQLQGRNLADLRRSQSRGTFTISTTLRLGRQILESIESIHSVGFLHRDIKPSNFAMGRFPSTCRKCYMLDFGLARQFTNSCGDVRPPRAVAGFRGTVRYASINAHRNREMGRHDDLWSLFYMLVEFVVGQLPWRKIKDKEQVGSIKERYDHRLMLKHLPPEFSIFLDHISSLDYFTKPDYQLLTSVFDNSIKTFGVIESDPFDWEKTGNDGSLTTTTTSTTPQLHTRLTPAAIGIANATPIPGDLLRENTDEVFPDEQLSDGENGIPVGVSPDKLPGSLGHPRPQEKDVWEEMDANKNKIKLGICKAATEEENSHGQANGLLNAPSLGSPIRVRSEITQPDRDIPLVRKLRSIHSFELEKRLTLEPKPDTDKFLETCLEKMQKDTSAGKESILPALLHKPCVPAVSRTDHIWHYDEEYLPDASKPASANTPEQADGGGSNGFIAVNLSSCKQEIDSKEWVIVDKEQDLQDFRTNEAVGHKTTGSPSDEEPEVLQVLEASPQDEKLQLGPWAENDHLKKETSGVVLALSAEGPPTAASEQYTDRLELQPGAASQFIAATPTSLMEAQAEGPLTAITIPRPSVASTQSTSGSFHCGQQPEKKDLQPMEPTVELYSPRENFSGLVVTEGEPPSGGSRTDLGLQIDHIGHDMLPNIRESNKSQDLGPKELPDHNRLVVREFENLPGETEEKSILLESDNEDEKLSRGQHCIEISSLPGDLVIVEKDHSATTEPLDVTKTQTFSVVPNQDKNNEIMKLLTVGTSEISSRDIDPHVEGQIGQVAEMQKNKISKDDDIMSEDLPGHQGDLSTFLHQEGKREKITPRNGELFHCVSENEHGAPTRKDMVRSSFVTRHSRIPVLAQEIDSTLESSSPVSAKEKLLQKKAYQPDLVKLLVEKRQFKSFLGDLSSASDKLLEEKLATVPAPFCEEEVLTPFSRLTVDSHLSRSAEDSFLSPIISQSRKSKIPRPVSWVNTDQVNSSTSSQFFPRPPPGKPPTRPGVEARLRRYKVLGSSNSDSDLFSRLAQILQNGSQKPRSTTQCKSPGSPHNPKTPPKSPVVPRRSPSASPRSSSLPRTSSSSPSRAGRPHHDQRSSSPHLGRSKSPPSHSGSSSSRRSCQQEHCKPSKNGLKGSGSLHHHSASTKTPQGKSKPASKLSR
T11 sequence (P35626 whole entry): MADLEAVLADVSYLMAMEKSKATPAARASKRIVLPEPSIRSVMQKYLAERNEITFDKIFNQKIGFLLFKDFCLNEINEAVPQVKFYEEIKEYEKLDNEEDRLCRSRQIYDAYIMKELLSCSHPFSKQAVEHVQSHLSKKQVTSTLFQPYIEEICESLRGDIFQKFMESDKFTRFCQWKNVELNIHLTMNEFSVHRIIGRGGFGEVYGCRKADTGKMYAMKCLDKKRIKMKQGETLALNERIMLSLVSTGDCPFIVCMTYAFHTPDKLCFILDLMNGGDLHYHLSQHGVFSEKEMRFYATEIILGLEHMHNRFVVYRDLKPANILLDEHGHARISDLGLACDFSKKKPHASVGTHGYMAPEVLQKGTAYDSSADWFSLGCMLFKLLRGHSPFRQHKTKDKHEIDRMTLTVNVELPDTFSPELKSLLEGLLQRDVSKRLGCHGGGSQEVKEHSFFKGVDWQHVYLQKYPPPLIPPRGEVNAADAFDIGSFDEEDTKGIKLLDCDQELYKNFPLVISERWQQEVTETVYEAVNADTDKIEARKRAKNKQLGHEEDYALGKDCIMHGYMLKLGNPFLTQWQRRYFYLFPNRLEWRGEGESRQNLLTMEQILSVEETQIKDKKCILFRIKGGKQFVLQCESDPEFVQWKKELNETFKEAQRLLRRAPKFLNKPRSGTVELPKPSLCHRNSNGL
T8 sequence (Q9Y463 whole entry): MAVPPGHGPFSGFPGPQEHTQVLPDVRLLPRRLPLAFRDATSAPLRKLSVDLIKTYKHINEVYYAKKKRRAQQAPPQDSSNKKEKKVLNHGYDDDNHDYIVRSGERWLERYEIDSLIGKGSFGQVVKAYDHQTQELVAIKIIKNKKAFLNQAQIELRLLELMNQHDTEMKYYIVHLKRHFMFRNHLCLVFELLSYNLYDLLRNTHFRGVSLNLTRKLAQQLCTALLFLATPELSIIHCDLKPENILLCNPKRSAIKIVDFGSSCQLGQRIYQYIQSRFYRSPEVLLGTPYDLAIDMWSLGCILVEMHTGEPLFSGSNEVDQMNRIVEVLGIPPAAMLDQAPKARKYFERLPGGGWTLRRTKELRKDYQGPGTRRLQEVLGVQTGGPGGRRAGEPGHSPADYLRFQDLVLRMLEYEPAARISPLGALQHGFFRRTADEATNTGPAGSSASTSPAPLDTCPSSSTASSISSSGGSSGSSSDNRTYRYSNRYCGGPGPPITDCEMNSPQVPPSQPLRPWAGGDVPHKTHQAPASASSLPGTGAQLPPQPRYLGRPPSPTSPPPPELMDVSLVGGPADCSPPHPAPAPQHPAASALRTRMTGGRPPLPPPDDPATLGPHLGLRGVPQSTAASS
Sequence of PIP5K1a(h) (Q99755 whole entry): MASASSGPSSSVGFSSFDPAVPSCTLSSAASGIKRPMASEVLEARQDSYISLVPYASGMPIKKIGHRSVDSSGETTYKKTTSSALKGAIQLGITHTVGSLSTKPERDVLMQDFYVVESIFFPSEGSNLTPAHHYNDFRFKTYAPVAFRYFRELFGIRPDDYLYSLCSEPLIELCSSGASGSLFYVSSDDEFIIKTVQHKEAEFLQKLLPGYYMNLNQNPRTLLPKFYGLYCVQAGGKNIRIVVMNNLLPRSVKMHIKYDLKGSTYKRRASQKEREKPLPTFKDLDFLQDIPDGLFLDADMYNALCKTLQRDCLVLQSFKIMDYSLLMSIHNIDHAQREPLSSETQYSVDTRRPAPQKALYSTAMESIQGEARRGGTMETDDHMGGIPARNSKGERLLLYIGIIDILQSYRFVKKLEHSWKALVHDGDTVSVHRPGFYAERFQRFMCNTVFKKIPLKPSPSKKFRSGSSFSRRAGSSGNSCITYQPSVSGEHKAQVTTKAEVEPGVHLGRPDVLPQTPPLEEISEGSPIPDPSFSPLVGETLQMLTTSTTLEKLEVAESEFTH
T1 sequence (P37023 22-503): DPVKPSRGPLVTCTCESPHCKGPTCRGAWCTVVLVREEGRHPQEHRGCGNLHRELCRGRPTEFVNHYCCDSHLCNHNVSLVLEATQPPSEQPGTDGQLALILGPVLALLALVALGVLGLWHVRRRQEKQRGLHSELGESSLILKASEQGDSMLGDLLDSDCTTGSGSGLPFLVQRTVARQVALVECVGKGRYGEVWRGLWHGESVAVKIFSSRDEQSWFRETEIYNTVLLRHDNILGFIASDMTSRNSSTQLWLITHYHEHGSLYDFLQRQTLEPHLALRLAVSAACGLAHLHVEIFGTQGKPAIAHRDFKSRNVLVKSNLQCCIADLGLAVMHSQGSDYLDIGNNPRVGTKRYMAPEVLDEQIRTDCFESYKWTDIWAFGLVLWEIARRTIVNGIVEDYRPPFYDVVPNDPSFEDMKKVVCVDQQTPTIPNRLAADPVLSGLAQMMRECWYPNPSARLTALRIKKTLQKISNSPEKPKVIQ
T13 sequence (P53671 whole entry): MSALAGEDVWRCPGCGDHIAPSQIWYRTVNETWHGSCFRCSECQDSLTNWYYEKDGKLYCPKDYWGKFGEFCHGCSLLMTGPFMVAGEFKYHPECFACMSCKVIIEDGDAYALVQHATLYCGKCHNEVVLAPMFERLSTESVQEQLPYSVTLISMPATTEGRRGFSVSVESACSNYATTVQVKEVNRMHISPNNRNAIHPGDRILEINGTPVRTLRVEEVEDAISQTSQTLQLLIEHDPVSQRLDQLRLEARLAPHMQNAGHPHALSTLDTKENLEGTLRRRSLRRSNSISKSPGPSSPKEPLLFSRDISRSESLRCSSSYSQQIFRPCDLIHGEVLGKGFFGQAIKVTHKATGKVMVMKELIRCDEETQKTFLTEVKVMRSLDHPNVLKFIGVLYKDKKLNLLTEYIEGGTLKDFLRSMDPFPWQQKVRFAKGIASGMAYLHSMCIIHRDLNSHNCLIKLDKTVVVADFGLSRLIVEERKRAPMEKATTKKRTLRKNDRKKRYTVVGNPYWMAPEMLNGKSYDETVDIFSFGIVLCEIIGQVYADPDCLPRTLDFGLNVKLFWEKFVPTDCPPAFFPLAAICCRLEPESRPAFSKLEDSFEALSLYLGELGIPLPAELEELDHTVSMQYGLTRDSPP
T30 sequence (Q6SA08 whole entry): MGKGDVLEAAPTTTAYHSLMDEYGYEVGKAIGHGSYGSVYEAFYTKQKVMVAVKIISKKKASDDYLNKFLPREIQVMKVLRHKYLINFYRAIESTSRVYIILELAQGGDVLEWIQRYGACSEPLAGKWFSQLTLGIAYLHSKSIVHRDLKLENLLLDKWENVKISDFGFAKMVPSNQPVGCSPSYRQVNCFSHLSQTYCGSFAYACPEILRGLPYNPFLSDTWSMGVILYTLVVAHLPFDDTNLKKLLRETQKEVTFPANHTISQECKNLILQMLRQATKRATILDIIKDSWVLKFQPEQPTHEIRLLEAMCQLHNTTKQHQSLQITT

Cc1cc(/C=C/C#N)cc(C)c1Nc1ccnc(Nc2ccc(C#N)cc2)n1 [rilpivirine, (E)-4-((4-((4-(2-cyanoethenyl)-2,6-dimethylphenyl)amino)pyrimidin-2-yl)amino)benzonitrile]
remaining activity at 1 µM (ALK1(h)): 84% | remaining activity at 1 µM (B-Raf(V599E)(h)): 95% | remaining activity at 1 µM (CDKL2(h)): 100% | remaining activity at 1 µM (CHK2(R145W)(h)): 76% | remaining activity at 1 µM (CK1γ1(h)): 80% | remaining activity at 1 µM (CK1δ(h)): 99% | remaining activity at 1 µM (CLK4(h)): 37% | remaining activity at 1 µM (DYRK1B(h)): 72% | remaining activity at 1 µM (EphA3(h)): 86% | remaining activity at 1 µM (FGFR4(h)): 121% | remaining activity at 1 µM (GRK3(h)): 92% | remaining activity at 1 µM (HIPK3(h)): 92% | remaining activity at 1 µM (LIMK2(h)): 71% | remaining activity at 1 µM (LRRK2(h)): 93% | remaining activity at 1 µM (MuSK(h)): 96% | remaining activity at 1 µM (NEK7(h)): 110% | remaining activity at 1 µM (PAK4(h)): 87% | remaining activity at 1 µM (PEK(h)): 82% | remaining activity at 1 µM [1]: 97% | remaining activity at 1 µM [2]: 99% | remaining activity at 1 µM (PIP5K1a(h)): 96% | remaining activity at 1 µM (PKCδ(h)): 72% | remaining activity at 1 µM (PRP4(h)): 113% | remaining activity at 1 µM (PhKγ1(h)): 80% | remaining activity at 1 µM (Plk4(h)): 85% | remaining activity at 1 µM (Ret (V804L)(h)): 91% | remaining activity at 1 µM (SIK2(h)): 57% | remaining activity at 1 µM (SRMS(h)): 55% | remaining activity at 1 µM (STK33(h)): 102% | remaining activity at 1 µM (TAO1(h)): 41% | remaining activity at 1 µM (TGFBR1(h)): 103% | remaining activity at 1 µM (TSSK2(h)): 91% | remaining activity at 1 µM (TSSK4(h)): 127% | remaining activity at 1 µM (TTBK1(h)): 90% | remaining activity at 1 µM (TTBK2(h)): 88% | remaining activity at 1 µM (TYK2(h)): 52% | remaining activity at 1 µM (TrkB(h)): 72% | remaining activity at 1 µM (WNK1(h)): 95%
